Reference: patent publication US20260007681A1, “INDOLE DERIVATIVES AS ESTROGEN RECEPTOR DEGRADERS” (REGENTS OF THE UNIVERSITY OF MICHIGAN, priority 2022, published 2026)

Target: ER (Homo sapiens (Human), UniProt P03372)
Experiment: Western blot analysis (Compounds B1-B278)
Format: cell-based
Settings: ER degradation by traditional Western blot; DC50 classes
How it was run: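 Compound-treated cells were lysed in RIPA buffer (Tris.HCl pH 7.6, 1% NP-40, deoxycholate, 0.1% SDS) with protease inhibitors; equal protein was resolved on 10% SDS-PAGE, transferred to PVDF and immunoblotted. Band intensities were quantified and normalized to GAPDH.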

Sequence of ER (P03372 whole entry): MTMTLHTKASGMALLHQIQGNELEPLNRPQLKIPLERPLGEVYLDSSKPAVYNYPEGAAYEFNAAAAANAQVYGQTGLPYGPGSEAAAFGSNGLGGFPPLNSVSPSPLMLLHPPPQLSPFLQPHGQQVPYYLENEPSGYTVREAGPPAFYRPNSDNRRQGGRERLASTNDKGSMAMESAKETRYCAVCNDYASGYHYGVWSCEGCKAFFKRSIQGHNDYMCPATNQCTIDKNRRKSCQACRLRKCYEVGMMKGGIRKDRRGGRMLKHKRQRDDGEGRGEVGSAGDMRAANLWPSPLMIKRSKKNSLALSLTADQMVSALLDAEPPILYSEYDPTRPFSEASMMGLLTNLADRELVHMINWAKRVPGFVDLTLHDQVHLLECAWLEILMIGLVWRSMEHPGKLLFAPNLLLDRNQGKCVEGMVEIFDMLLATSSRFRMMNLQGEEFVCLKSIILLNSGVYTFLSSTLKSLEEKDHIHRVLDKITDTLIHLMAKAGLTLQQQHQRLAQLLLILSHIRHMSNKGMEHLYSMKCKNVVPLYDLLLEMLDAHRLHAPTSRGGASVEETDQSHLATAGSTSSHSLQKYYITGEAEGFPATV

| Traditional Western Degradation Potency | Compound |
| --- | --- |
| A (“A”: <10 nM) | C[C@@H]1Cc2c([nH]c3ccccc23)[C@@H](c2cnc(N3CCC(C(=O)N4CCC(N5Cc6cc7c(cc6C5)C(=O)N(C5CCC(=O)NC5=O)C7=O)CC4)CC3)nc2)N1CC(F)(F)F (stereo partly drawn) [Compound B219, 2-(2,6-dioxopiperidin-3-yl)-6-(1-(1-(5-((1R,3R)-3-methyl-2-(2,2,2-trifluoroethyl)-2,3,4,9-tetrahydro-1H-pyrido[3,4-b]indol-1-yl)pyrimidin-2-yl)piperidine-4-carbonyl)piperidin-4-yl)-6,7-dihydropyrrolo[3,4-f]isoindole-1,3(2H,5H)-dione] |
| A (“A”: <10 nM) | C[C@@H]1Cc2c([nH]c3ccccc23)[C@@H](c2cnc(N3CCC4(CCN(C(=O)CN5Cc6cc7c(cc6C5)C(=O)N(C5CCC(=O)NC5=O)C7=O)CC4)CC3)nc2)N1CC(F)F (stereo partly drawn) [Compound B220, 6-(2-(9-(5-((1R,3R)-2-(2,2-difluoroethyl)-3-methyl-2,3,4,9-tetrahydro-1H-pyrido[3,4-b]indol-1-yl)pyrimidin-2-yl)-3,9-diazaspiro[5.5]undecan-3-yl)-2-oxoethyl)-2-(2,6-dioxopiperidin-3-yl)-6,7-dihydropyrrolo[3,4-f]isoindole-1,3(2H,5H)-dione] |
| A (“A”: <10 nM) | C[C@@H]1Cc2c([nH]c3ccccc23)[C@@H](c2cnc(N3CCC4(CC3)CN(C(=O)CN3Cc5cc6c(cc5C3)C(=O)N(C3CCC(=O)NC3=O)C6=O)C4)nc2)N1CC(F)F (stereo partly drawn) [Compound B221, 6-(2-(7-(5-((1R,3R)-2-(2,2-difluoroethyl)-3-methyl-2,3,4,9-tetrahydro-1H-pyrido[3,4-b]indol-1-yl)pyrimidin-2-yl)-2,7-diazaspiro[3.5]nonan-2-yl)-2-oxoethyl)-2-(2,6-dioxopiperidin-3-yl)-6,7-dihydropyrrolo[3,4-f]isoindole-1,3(2H,5H)-dione] |
| A (“A”: <10 nM) | C[C@@H]1Cc2c([nH]c3ccccc23)[C@@H](c2cnc(N3CCC(C(=O)N4CCC(N5Cc6cc7c(cc6C5)C(=O)N(C5CCC(=O)NC5=O)C7=O)CC4)CC3)nc2)N1CC(F)F (stereo partly drawn) [Compound B222, 6-(1-(1-(5-((1R,3R)-2-(2,2-difluoroethyl)-3-methyl-2,3,4,9-tetrahydro-1H-pyrido[3,4-b]indol-1-yl)pyrimidin-2-yl)piperidine-4-carbonyl)piperidin-4-yl)-2-(2,6-dioxopiperidin-3-yl)-6,7-dihydropyrrolo[3,4-f]isoindole-1,3(2H,5H)-dione] |
| B (“B”: 10-100 nM) | C[C@@H]1Cc2c([nH]c3ccccc23)[C@@H](c2cnc(N3CCC(CN4CCC(N5Cc6cc7c(cc6C5)C(=O)N(C5CCC(=O)NC5=O)C7=O)CC4)CC3)nc2)N1CC(F)F (stereo partly drawn) [Compound B223, 6-(1-((1-(5-((1R,3R)-2-(2,2-difluoroethyl)-3-methyl-2,3,4,9-tetrahydro-1H-pyrido[3,4-b]indol-1-yl)pyrimidin-2-yl)piperidin-4-yl)methyl)piperidin-4-yl)-2-(2,6-dioxopiperidin-3-yl)-6,7-dihydropyrrolo[3,4-f]isoindole-1,3(2H,5H)-dione] |
| B (“B”: 10-100 nM) | C[C@@H]1Cc2c([nH]c3ccccc23)[C@@H](c2ccc(N3CCC4(CC3)CN(C(=O)CN3Cc5cc6c(cc5C3)C(=O)N(C3CCC(=O)NC3=O)C6=O)C4)cc2)N1CC(F)F (stereo partly drawn) [Compound B224, 6-(2-(7-(4-((1R,3R)-2-(2,2-difluoroethyl)-3-methyl-2,3,4,9-tetrahydro-1H-pyrido[3,4-b]indol-1-yl)phenyl)-2,7-diazaspiro[3.5]nonan-2-yl)-2-oxoethyl)-2-(2,6-dioxopiperidin-3-yl)-6,7-dihydropyrrolo[3,4-f]isoindole-1,3(2H,5H)-dione] |
